One series in a line: Water solubility. In kind it is physicochemical. An excerpt:
Danegaptide as a HCL salt is water-soluble. To investigate the viability of this drug, a melt extrusion formulation strategy was chosen, and six different formulations based on various viable excipients feasible for the melt extrusion process were manufactured with approximately 20% drug load.

In series [1] the test system is retinal endothelial cell coupling. The settings on record: in vitro; cited from earlier work.
In the next series the test system is retinal vascular cells. The note with it: cited from earlier work.
The subject of the next series is vascular leakage. The note with it: cited from earlier work.
The nature of a further series: Toxicology program. In kind it is in vivo. The settings on record: high concentration levels administered locally in selected tissues or systemically. An excerpt: However, the protective effects of danegaptide from stress-induced cell-cell uncoupling or cellular loss may be diminished or lost at higher concentrations of danegaptide.
Series [2] is described as follows: Dissolution testing of prototype formulations in 0.9% NaCl at 37° C., HPLC. The note with it: prolonged storage of the dosage form at 37° C. It counts as physicochemical. On the procedure: Described below is the dissolution behavior of Danegaptide when formulated in 6 different melt extrusion formulations. The formulations were manufactured with a drug load of about 20%. The formulations were exposed to physiological salt solutions at 37° C. and stored for several months. The media was changed regularly and analyzed for content of Danegaptide.
The dissolution process was investigated for each of the 6 manufactured prototypes by inserting the prototypes into a 0.9% NaCl solution and test the dissolution of Danegaptide over time by HPLC. The experiment was conducted over 170 days.
Fifteen dose units of each prototype was weighed and were wrapped into a permeable filter bag consisting of empty triangular tea bags made of polymeric material, with a mesh size of less than 0.5 μm. The bags were each inserted into glass vials and 10 ml 0.9% NaCl solution media were added to each vial. The vials were placed in a water bath at 37° C. At regular intervals the media was drained and 10 ml new media was added and the vials were returned to the water bath. […] One day delivery periods were also tested several times during the dissolution period. […] In addition, an informative impurity profile was recorded. In relation to this, the pH value of each collected media sample was determined. […]
The Danegaptide content was quantified to a Danegaptide reference substance. […]

For a further series, the system named is Gap-Junction coupling. As to the kind of experiment: In vitro and in vivo pre-clinical studies, Gap-Junction coupling under stressed conditions.

Entries after “also recorded” stand apart in the source; their conditions may differ. Where a name gives a salt, the structure may show the parent alone.

For the compound `NCC(=O)N1C[C@H](NC(=O)c2ccccc2)C[C@H]1C(=O)O` [Danegaptide as a HCL salt], the Water solubility result in “Water solubility” is “water-soluble”.

As for `NCC(=O)N1C[C@H](NC(=O)c2ccccc2)C[C@H]1C(=O)O` [Danegaptide, (2S,4R)-1-(2-aminoacetyl)-4-benzoylamino-pyrrolidine-2-carboxylic acid], the “Concentration giving optimal protection from high-glucose induced cell-cell uncoupling” value in series [1] is 50 to 100 nM. Moreover, in the series with retinal vascular cells (high glucose condition), the “Cell-cell GJ uncoupling” value is “prevent cell-cell GJ uncoupling”. For the same compound, the High glucose-induced apoptosis entry in the series with retinal vascular cells (retinal vascular cells) is given as “prevent high glucose-induced apoptosis”. The Vascular leakage entry in the series on vascular leakage was “reduce vascular leakage”. Also, the Toxicity entry in the series “Toxicology program” is on record as “no toxicity concerns”. Besides, in series [2], the “Degradation of Danegaptide during the dissolution period (HPLC impurity profile)” value was “probably only happened to a smaller extent; also recorded: did not indicate a significant degradation pattern”. For the same compound, in the series with Gap-Junction coupling, the “Optimal concentration in the target tissue, such as the retina, to maintain Gap-Junction coupling” value was in the range of 50 to 100 nM.

The values above are taken from US20250049758A1, “Danegaptide Formulation for Application in the Eye” (Breye Therapeutics APS, priority 2021, published 2025).
